{"source": "patent US20260041620A1", "about": "“NOVEL AMINO ACID BASED SALTS, COMPOSITIONS AND METHODS FOR TREATING SKIN AND IMPROVING SKIN REJUVENATION AND LONGEVITY” (Sytheon Ltd, priority 2023, published 2026)", "key": {"HDAC 5": {"biological_target": "HDAC 5 (Homo sapiens, UniProt Q9UQL6)", "sequence (Q9UQL6 whole entry)": "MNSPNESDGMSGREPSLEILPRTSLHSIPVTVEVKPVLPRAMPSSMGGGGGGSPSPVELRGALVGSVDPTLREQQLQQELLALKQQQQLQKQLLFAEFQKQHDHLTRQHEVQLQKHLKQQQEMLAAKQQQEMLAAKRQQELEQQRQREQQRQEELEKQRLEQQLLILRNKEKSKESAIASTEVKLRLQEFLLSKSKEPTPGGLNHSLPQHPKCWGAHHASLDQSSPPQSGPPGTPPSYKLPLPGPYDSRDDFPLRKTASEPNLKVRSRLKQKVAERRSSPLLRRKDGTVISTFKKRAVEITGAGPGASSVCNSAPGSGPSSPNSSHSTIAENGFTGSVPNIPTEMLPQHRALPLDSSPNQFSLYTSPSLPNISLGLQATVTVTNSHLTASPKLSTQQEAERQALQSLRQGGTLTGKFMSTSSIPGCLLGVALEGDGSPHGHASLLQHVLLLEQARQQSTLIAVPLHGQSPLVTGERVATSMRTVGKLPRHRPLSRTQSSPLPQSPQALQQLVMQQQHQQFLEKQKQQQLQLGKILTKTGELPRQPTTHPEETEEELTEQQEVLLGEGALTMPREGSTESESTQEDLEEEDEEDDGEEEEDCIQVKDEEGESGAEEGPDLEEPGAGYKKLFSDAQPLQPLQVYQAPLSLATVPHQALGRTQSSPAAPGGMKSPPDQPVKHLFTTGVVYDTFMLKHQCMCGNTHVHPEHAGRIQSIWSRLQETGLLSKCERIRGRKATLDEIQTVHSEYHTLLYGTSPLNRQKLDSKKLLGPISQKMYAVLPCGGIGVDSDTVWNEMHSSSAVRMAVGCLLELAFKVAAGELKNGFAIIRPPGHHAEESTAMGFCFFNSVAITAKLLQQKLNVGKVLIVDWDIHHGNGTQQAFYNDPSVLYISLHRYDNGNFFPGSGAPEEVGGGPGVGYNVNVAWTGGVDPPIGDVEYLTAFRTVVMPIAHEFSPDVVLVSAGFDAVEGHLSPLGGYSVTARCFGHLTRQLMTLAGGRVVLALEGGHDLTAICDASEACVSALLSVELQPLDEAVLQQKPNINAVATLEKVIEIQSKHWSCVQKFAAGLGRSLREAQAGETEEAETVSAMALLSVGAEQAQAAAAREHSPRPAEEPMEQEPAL", "quoted_text": "(§1) Test materials were stored at room temperature and stock solutions were prepared at 20 mg/ml in DMSO. Further dilutions were made in sterile distilled water immediately before being added to the reaction mixture containing a substrate, and the reaction was triggered by the addition of purified HDAC enzymes, Double distilled water was the negative control and trichostatin (1.5 ug/ml) was used as a positive control for validation of each study. The test procedure was as directed in the assay kits. The products of the reactions were measured by fluorometry at ex/em 350/450 nm using multi-well plate fluorometer Cytofluor 4000 (Applied Biosystem, Foster City, CA) or using SpectraMax i3× Multi-Mode Detection Platform from Molecular Devices (Sunnyvale, CA).\n(§2) Statistical significance was assessed with a two-tail Student test. Deviations of ≤20% as compared to water control with p values below 0.05 were considered statistically significant."}, "HDAC 3": {"biological_target": "HDAC 3 (Homo sapiens, UniProt O15379)", "sequence (O15379 whole entry)": "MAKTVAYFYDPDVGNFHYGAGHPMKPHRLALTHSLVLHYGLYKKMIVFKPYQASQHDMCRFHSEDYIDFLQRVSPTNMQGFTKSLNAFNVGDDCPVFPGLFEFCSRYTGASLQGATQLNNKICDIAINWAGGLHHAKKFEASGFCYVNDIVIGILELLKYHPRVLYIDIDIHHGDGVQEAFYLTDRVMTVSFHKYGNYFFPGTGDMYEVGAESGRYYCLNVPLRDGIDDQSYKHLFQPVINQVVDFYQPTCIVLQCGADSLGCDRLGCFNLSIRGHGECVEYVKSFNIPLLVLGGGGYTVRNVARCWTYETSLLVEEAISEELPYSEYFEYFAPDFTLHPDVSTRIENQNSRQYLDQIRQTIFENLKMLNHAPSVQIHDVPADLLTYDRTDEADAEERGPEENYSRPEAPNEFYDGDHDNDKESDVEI", "sequence (Q9Y618 395-489 partner limits assumed)": "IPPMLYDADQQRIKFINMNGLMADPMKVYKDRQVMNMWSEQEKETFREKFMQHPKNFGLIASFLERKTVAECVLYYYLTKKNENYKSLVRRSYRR", "quoted_text": "as §1, §2"}, "HDAC 9": {"biological_target": "HDAC 9 (Homo sapiens, UniProt Q9UKV0)", "sequence (Q9UKV0 whole entry)": "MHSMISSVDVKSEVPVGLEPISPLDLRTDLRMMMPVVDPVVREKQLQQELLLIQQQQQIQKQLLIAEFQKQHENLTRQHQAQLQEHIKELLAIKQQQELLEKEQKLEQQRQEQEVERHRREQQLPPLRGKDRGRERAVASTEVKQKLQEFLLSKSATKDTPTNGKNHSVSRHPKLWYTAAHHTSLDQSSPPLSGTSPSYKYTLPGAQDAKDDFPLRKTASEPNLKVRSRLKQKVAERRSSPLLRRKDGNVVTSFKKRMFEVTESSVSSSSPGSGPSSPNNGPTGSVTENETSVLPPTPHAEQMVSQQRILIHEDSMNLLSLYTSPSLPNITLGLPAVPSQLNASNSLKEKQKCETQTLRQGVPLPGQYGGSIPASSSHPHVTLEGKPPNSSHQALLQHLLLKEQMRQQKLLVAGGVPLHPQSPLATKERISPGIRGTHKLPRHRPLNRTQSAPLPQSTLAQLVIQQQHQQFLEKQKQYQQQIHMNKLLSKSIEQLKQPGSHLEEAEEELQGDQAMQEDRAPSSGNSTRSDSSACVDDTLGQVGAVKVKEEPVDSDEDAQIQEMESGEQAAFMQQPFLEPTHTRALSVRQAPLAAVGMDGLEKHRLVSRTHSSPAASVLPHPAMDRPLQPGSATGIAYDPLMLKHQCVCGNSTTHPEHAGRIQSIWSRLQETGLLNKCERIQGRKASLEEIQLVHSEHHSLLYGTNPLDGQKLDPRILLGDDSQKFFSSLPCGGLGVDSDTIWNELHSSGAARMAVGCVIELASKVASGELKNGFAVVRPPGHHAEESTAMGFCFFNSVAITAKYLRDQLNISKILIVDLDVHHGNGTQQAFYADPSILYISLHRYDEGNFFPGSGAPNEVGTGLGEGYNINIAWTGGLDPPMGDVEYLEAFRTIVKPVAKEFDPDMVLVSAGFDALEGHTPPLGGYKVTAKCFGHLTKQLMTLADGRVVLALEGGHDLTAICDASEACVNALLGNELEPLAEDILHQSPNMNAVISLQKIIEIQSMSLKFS", "quoted_text": "as §1, §2"}, "HDAC1": {"biological_target": "HDAC1 (Homo sapiens, UniProt Q13547)", "sequence (Q13547 whole entry)": "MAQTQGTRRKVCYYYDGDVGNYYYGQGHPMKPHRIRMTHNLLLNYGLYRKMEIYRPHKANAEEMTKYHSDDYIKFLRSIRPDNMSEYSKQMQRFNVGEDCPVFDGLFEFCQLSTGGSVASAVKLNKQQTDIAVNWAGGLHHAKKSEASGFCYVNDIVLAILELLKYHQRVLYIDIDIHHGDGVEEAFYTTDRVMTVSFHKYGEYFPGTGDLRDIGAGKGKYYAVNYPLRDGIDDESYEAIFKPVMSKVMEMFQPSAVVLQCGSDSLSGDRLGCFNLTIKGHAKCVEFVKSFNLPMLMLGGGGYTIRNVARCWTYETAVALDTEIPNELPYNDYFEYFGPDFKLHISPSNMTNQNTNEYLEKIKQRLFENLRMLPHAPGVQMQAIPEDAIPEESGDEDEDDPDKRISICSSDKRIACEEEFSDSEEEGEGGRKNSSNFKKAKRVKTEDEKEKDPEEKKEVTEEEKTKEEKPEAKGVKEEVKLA", "test": "HDAC 1 fluorogenic assay kit", "quoted_text": "as §1, §2"}, "MAGL": {"biological_target": "T1, MAGL (Homo sapiens, UniProt Q99685)", "T1 construct": "purchased Cayman 10007812", "T1 sequence (Q99685 1-303)": "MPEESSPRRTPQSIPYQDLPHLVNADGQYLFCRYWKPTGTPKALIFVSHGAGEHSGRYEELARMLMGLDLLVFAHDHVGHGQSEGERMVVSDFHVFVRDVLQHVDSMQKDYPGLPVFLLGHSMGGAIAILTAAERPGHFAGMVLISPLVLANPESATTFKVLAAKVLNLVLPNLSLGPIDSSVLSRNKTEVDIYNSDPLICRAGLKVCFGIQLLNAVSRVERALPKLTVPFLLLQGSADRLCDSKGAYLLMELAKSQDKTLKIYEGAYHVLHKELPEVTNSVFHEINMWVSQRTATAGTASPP", "test": "MAGL inhibitory assay", "assay_type": "biochemical", "description": "Each study was performed in duplicate and the results averaged.\nThe final concentration in each well was 10 μl of sample, 5.6 μM MAGL (Cayman Catalog #10007812) and 23.6 μM 2-Arachidonoyl Glycerol (Cayman catalog #62160)."}, "HDAC 11": {"biological_target": "T2, HDAC 11 (Homo sapiens, UniProt Q96DB2)", "T2 construct": "purchased BPS Biosciences 50687", "T2 sequence (Q96DB2 1-347)": "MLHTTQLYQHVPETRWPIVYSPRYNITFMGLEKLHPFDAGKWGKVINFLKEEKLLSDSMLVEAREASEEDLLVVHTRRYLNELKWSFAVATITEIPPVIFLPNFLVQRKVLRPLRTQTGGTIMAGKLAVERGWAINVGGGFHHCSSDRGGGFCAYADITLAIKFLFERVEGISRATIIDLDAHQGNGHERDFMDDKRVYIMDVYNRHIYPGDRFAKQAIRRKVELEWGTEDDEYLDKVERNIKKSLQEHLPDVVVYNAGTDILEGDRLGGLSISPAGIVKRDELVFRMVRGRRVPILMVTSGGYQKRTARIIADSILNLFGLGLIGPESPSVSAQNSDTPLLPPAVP", "test": "HDAC 11 fluorogenic assay kit", "assay_type": "biochemical", "quoted_text": "as §1, §2"}, "HDAC2": {"biological_target": "HDAC2 (Homo sapiens, UniProt Q92769)", "sequence (Q92769 whole entry)": "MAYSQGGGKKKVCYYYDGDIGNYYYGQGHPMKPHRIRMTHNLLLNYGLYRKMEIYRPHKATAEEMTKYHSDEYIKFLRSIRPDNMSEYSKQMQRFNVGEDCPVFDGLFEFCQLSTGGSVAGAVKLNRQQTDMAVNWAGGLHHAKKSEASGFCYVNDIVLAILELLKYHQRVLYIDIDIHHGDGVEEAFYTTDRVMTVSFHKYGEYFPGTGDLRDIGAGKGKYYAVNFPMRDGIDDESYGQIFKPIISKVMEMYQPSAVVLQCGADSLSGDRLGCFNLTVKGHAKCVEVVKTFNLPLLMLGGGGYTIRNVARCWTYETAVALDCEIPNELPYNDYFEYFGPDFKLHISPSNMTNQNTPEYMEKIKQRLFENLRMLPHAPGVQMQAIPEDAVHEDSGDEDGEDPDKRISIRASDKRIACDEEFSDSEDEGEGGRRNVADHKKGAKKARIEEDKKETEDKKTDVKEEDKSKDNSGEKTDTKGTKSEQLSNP", "quoted_text": "as §1, §2"}, "HDAC6": {"biological_target": "T3, HDAC6 (Homo sapiens, UniProt Q9UBN7)", "T3 sequence (Q9UBN7 1-1215)": "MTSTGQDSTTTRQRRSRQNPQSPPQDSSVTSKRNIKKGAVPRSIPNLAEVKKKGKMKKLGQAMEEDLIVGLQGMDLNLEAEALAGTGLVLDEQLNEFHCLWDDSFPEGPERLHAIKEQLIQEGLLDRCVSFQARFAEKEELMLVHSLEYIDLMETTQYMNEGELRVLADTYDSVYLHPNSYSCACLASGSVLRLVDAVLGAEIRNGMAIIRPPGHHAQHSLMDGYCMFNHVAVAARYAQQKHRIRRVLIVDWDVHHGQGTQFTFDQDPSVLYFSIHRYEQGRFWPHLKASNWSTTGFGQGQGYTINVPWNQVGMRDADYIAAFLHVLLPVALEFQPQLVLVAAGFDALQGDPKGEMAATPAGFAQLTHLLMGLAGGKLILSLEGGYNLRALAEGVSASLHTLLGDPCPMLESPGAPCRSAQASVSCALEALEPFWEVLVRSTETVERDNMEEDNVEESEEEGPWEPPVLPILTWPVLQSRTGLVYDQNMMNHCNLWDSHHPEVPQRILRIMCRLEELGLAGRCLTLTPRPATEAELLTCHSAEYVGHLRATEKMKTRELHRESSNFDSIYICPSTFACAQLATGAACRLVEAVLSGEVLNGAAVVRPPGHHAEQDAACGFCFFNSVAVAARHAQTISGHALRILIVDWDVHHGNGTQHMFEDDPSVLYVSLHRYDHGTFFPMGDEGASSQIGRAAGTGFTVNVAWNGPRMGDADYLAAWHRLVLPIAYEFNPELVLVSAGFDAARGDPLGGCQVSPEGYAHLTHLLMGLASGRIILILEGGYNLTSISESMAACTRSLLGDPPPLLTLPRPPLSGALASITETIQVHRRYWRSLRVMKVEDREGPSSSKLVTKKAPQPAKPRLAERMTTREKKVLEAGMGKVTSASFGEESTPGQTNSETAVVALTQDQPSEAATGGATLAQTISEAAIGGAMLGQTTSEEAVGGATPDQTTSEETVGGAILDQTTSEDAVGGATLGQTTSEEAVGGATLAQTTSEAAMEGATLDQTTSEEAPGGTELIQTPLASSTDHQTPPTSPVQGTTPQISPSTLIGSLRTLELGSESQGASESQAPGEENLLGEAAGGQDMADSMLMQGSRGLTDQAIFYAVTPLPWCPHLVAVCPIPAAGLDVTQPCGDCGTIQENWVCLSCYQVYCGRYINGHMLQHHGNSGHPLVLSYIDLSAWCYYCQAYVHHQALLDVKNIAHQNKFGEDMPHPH", "quoted_text": "as §1, §2"}, "HDAC 4": {"biological_target": "HDAC 4 (Homo sapiens, UniProt P56524)", "sequence (P56524 whole entry)": "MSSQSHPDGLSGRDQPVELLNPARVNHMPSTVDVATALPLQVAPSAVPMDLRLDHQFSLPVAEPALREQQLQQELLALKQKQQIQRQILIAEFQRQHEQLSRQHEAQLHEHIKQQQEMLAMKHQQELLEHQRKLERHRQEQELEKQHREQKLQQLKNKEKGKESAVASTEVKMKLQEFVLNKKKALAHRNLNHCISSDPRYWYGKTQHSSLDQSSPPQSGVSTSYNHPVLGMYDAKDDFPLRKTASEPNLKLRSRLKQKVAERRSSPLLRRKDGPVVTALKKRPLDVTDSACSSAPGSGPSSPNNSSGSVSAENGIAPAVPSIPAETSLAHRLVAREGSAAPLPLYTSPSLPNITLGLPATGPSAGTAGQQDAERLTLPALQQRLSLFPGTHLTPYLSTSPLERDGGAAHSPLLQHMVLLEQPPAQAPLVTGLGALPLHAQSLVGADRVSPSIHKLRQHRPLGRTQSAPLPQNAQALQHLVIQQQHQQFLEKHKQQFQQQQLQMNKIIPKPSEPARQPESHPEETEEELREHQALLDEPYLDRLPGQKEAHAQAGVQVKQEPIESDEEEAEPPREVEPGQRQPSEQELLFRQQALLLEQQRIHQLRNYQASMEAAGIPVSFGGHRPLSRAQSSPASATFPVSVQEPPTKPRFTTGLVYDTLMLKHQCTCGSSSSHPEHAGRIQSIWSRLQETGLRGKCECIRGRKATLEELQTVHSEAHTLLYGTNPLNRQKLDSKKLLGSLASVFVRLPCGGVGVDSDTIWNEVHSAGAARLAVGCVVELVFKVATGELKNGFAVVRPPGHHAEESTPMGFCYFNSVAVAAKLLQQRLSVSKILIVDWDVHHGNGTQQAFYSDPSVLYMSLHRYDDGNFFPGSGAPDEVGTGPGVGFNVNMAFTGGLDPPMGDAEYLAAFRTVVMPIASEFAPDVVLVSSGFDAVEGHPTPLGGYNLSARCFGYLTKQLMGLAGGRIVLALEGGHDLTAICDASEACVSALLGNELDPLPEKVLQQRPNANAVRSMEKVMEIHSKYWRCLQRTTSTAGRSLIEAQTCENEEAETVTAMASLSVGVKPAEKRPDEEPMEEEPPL", "test": "HDAC 4 fluorogenic assay kit"}}, "note": "Read-outs that look alike come from different tables or passages of the source."}
{"substance": "Zinc Di-lysinate [Zn dilysinate]", "values": [{"measurement": "HDAC 5 activity, % of water-treated controls", "setting": "HDAC 5; 25 ug/ml", "value": 73, "unit": "%"}, {"measurement": "HDAC 5 activity, % of water-treated controls", "setting": "HDAC 5; 50 ug/ml", "value": 52, "unit": "%"}, {"measurement": "HDAC 5 activity, % of water-treated controls", "setting": "HDAC 5; 100 ug/ml", "value": 31, "unit": "%"}, {"measurement": "HDAC 5 activity, % of water-treated controls", "setting": "HDAC 5; 200 ug/ml", "value": 14, "unit": "%"}, {"measurement": "HDAC 3 activity, % of water-treated controls", "setting": "HDAC 3; 10 ug/ml", "value": 18, "unit": "%"}, {"measurement": "HDAC 3 activity, % of water-treated controls", "setting": "HDAC 3; 50 ug/ml", "value": 8, "unit": "%"}, {"measurement": "HDAC 3 activity, % of water-treated controls", "setting": "HDAC 3; 200 ug/ml", "value": 5, "unit": "%"}, {"measurement": "HDAC 9 activity, % of water-treated controls", "setting": "HDAC 9; 5 ug/ml", "value": 21, "unit": "%"}, {"measurement": "HDAC 9 activity, % of water-treated controls", "setting": "HDAC 9; 25 ug/ml", "value": 18, "unit": "%"}, {"measurement": "HDAC 9 activity, % of water-treated controls", "setting": "HDAC 9; 50 ug/ml", "value": 15, "unit": "%"}, {"measurement": "HDAC 9 activity, % of water-treated controls", "setting": "HDAC 9; 100 ug/ml", "value": 15, "unit": "%"}, {"measurement": "HDAC 9 activity, % of water-treated controls", "setting": "HDAC 9; 200 ug/ml", "value": 16, "unit": "%"}, {"measurement": "HDAC 1 activity, % of water-treated controls", "setting": "HDAC1; 25 ug/ml", "value": 52, "unit": "%"}, {"measurement": "HDAC 1 activity, % of water-treated controls", "setting": "HDAC1; 50 ug/ml", "value": 44, "unit": "%"}, {"measurement": "HDAC 1 activity, % of water-treated controls", "setting": "HDAC1; 100 ug/ml", "value": 32, "unit": "%"}, {"measurement": "MAGL IC50", "setting": "MAGL", "value": 207.0, "unit": "µg/mL"}, {"measurement": "HDAC 11 activity, % of water-treated controls", "setting": "HDAC 11; 25 ug/ml", "value": 91, "unit": "%"}, {"measurement": "HDAC 11 activity, % of water-treated controls", "setting": "HDAC 11; 50 ug/ml", "value": 84, "unit": "%"}, {"measurement": "HDAC 11 activity, % of water-treated controls", "setting": "HDAC 11; 100 ug/ml", "value": 47, "unit": "%"}, {"measurement": "HDAC 11 activity, % of water-treated controls", "setting": "HDAC 11; 200 ug/ml", "value": 38, "unit": "%"}, {"measurement": "HDAC 2 activity, % of water-treated controls", "setting": "HDAC2; 25 ug/ml", "value": 12, "unit": "%"}, {"measurement": "HDAC 2 activity, % of water-treated controls", "setting": "HDAC2; 50 ug/ml", "value": 1, "unit": "%"}, {"measurement": "HDAC 2 activity, % of water-treated controls", "setting": "HDAC2; 100 ug/ml", "value": 1, "unit": "%"}, {"measurement": "HDAC 2 activity, % of water-treated controls", "setting": "HDAC2; 200 ug/ml", "value": 9, "unit": "%"}, {"measurement": "HDAC 6 activity, % of water-treated controls", "setting": "HDAC6; 5 ug/ml", "value": 22, "unit": "%"}, {"measurement": "HDAC 6 activity, % of water-treated controls", "setting": "HDAC6; 25 ug/ml", "value": 16, "unit": "%"}, {"measurement": "HDAC 6 activity, % of water-treated controls", "setting": "HDAC6; 50 ug/ml", "value": 17, "unit": "%"}, {"measurement": "HDAC 6 activity, % of water-treated controls", "setting": "HDAC6; 100 ug/ml", "value": 14, "unit": "%"}, {"measurement": "HDAC 6 activity, % of water-treated controls", "setting": "HDAC6; 200 ug/ml", "value": 8, "unit": "%"}, {"measurement": "HDAC 4 activity, % of water-treated controls", "setting": "HDAC 4; 25 ug/ml", "value": 100, "unit": "%"}, {"measurement": "HDAC 4 activity, % of water-treated controls", "setting": "HDAC 4; 50 ug/ml", "value": 92, "unit": "%"}, {"measurement": "HDAC 4 activity, % of water-treated controls", "setting": "HDAC 4; 100 ug/ml", "value": 63, "unit": "%"}]}
